From the supplement of paper PMC13380429

Experiments:
Conditions in all cases: 72 h
[1] = tested on: Caco-2; assay: cell viability relative to DMSO; higher = less toxic
[2] = tested on: Calu-3; assay: as above
[3] = tested on: HepG2; assay: as above
[4] = tested on: Vero E6; assay: as above
[5] = tested on: Caco-2; assay: relative viability EC50 (midpoint between 100% and the lowest measured viability); higher = less toxic
[6] = tested on: HepG2; assay: as above
[7] = tested on: Vero E6; assay: as above
[8] = tested on: Caco-2; assay: drug sensitivity score (DSS) for viability; higher = more toxic; extreme values may be limits of the assay
[9] = tested on: Calu-3; assay: as above
[10] = tested on: HepG2; assay: as above
[11] = tested on: Vero E6; assay: as above
[12] = tested on: U2OS; assay: cell viability relative to DMSO; higher = less toxic
[13] = tested on: U2OS; assay: drug sensitivity score (DSS) for viability; higher = more toxic; extreme values may be limits of the assay
[14] = tested on: U2OS; assay: relative viability EC50 (midpoint between 100% and the lowest measured viability); higher = less toxic

SMILES | cell viability ([1]; 1 nM) [%] | cell viability ([1]; 10 nM) [%] | cell viability ([1]; 100 nM) [%] | cell viability ([1]; 1000 nM) [%] | cell viability ([1]; 10000 nM) [%] | cell viability ([2]; 1 nM) [%] | cell viability ([2]; 10 nM) [%] | cell viability ([2]; 100 nM) [%] | cell viability ([2]; 1000 nM) [%] | cell viability ([2]; 10000 nM) [%] | cell viability ([3]; 1 nM) [%] | cell viability ([3]; 10 nM) [%] | cell viability ([3]; 100 nM) [%] | cell viability ([3]; 1000 nM) [%] | cell viability ([3]; 10000 nM) [%] | cell viability ([4]; 1 nM) [%] | cell viability ([4]; 10 nM) [%] | cell viability ([4]; 100 nM) [%] | cell viability ([4]; 1000 nM) [%] | cell viability ([4]; 10000 nM) [%] | relative viability EC50 [5] [µM] | relative viability EC50 [6] [µM] | relative viability EC50 [7] [µM] | drug sensitivity score [8] | drug sensitivity score [9] | drug sensitivity score [10] | drug sensitivity score [11] | cell viability ([12]; 1 nM) [%] | cell viability ([12]; 10 nM) [%] | cell viability ([12]; 100 nM) [%] | cell viability ([12]; 1000 nM) [%] | cell viability ([12]; 10000 nM) [%] | drug sensitivity score [13] | relative viability EC50 [14] [µM]
c1ccc2c(Oc3nc(Nc4ccc(N5CCOCC5)cc4)c4ncn(C5CCCCC5)c4n3)cccc2c1 [purmorphamine] | 94.9 | 94.2 | 89.8 | 98.7 | 85.9 | 92.7 | 92.4 | 94.3 | 106 | 74.3 | 97.4 | 105 | 103 | 91.9 | 77.8 | 99.2 | 96.1 | 100 | 91.7 | 90.1 | > 10 | > 10 | > 10 | 0 | 0.7 | 1.7 | 0 | – | – | – | – | – | – | –
C/C(=N\NC(=N)N)c1cc(NC(=O)CCCCCCCCC(=O)Nc2cc(/C(C)=N/NC(=N)N)cc(/C(C)=N/NC(=N)N)c2)cc(/C(C)=N/NC(=N)N)c1 [semapimod] | 99.4 | 103 | 106 | 91.1 | 71 | 98.5 | 98.6 | 102 | 88.1 | 65.8 | 91.9 | 99.6 | 104 | 90.3 | 65.6 | 100 | 93.4 | 92.1 | 94.7 | 75.9 | – | – | > 10 | 2.5 | 3.3 | 3 | 1.2 | 101 | 103 | 96.3 | 102 | 67.6 | 1.3 | –
CC(C)N1CCN(c2ccc(OCC3COC(Cn4cncn4)(c4ccc(Cl)cc4Cl)O3)cc2)CC1 (stereo not drawn) [terconazole] | 90.6 | 98.2 | 94.3 | 108 | 70.9 | 103 | 105 | 89.1 | 97.8 | 54.7 | 124 | 121 | 124 | 89.8 | 62.6 | 116 | 96.8 | 106 | 90.8 | 76.8 | – | – | > 10 | 0.9 | 2.6 | 3.3 | 1.9 | 97.4 | 104 | 105 | 104 | 93.8 | 0 | > 10
COc1cc(/C=C(\C#N)C(N)=O)cc(CSc2nc3ccccc3s2)c1O [tyrphostin-AG-825] | 102 | 103 | 96.2 | 107 | 96.4 | – | – | – | – | – | 105 | 92.4 | 103 | 97.3 | 108 | 92.6 | 97 | 94.7 | 93.8 | 105 | > 10 | > 10 | > 10 | 0 | – | 0 | 0 | 94.7 | 99.9 | 97.7 | 96 | 101 | 0 | > 10
